Measurements from patent US11590116B2 (THERAVANCE BIOPHARMA R&D IP, LLC, priority 2019, dated 2023).

Key:
[1] = target: T1, recombinant human ALK5 (TGF-βR1) protein (Homo sapiens, UniProt P36897); experiment: Biochemical ALK5 (TGF-βR1) assay to measure pKi (LANCE Ultra ULight kinase assay); conditions: apparent pKi from pIC50 by Cheng-Prusoff, read-out: ALK5 pKi (converted)
T1 construct: purchased Life Technologies PR9075A
T1 sequence (P36897 34-503): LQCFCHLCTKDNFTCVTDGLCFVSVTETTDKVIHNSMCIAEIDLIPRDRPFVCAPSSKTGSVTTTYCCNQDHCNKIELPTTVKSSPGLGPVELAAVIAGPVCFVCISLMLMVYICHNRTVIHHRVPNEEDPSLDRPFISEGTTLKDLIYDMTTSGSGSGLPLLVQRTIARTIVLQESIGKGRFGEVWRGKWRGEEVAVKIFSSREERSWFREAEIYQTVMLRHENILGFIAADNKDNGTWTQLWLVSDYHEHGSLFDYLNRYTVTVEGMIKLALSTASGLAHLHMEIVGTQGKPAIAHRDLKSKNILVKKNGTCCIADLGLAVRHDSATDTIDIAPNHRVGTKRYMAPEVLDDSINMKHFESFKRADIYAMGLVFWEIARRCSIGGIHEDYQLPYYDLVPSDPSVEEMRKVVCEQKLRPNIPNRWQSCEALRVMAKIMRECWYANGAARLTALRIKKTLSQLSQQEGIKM
Method in brief: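 Dose range 10 μM–25 pM; enzyme + compound 60 min RT; ATP added (5× stock 125 μM, 2 mM DTT); 60 min 37 °C; stop with EDTA + Eu anti-phospho-Topo IIα Thr1342 Ab; TR-FRET ex 320/340, em 665 nm. 4-param pIC50 → pKi (Cheng-Prusoff).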

[2] = test system: TGF-β-stimulated SMAD3 phosphorylation in BEAS-2B cells; experiment: Cellular ALK5 potency assay, inhibition of TGF-β stimulated pSMAD3 formation in BEAS-2B cells; assay type: cell-based; conditions: Homo sapiens; inhibition of TGF-β stimulated pSMAD3 formation, BEAS-2B cells; read-out: BEAS2B pIC50 (converted)
Method in brief: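 Potency is reported as pIC50, derived from concentration-dependent reduction of pSMAD3 AlphaLISA signal against TGF-β-stimulated cells without compound. BEAS-2B cells received compound for 1 h before a 30-min stimulation with 10 ng/mL TGF-β.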

Ki [1] [nM]	SMILES	IC50 [2] [nM]
0.398 to 3.16	Cc1cccc(-c2[nH]cnc2-c2ccc3ncc(C4CCC(N)CC4)cc3c2)n1 (stereo not shown) [Compound 142, 4-[6-[5-(6-methyl-2-pyridyl)-1H-imidazol-4-yl]-3-quinolyl]cyclohexanamine]	25.1 to 158
0.0398 to 0.316	Cc1cccc(-c2n[nH]cc2-c2ccc3ncc(-c4ncc5n4CCNC5)cc3n2)n1 [Compound 143, 2-[3-(6-methyl-2-pyridyl)-1H-pyrazol-4-yl]-7-(5,6,7,8-tetrahydroimidazo[1,5-a]pyrazin-3-yl)-1,5-naphthyridine]	200 to 1260
0.0398 to 0.316	Cc1cccc(-c2n[nH]cc2-c2ccc3ncc(N4CCCN(C)CC4)cc3n2)n1 [Compound 144, 7-(4-methyl-1,4-diazepan-1-yl)-2-[3-(6-methyl-2-pyridyl)-1H-pyrazol-4-yl]-1,5-naphthyridine]	25.1 to 158
0.0398 to 0.316	Cc1cccc(-c2[nH]cnc2-c2ccc3ncc(-c4ccc(C(=O)O)cc4)cc3c2)n1 [Compound 145, 4-[6-[5-(6-methyl-2-pyridyl)-1H-imidazol-4-yl]-3-quinolyl]benzoic acid]	200 to 1260
0.0398 to 0.316	Cc1cccc(-c2[nH]ncc2-c2ccc3ncc(C(=O)OCCCCN4CCCC4)cc3n2)n1 [Compound 146, 4-pyrrolidin-1-ylbutyl 6-[5-(6-methyl-2-pyridyl)-1H-pyrazol-4-yl]-1,5-naphthyridine-3-carboxylate]	25.1 to 158
0.0398 to 0.316	Cc1cccc(-c2[nH]cnc2-c2ccc3ncc(C4=CCCCC4)cc3c2)n1 [Compound 147, 3-(cyclohexen-1-yl)-6-[5-(6-methyl-2-pyridyl)-1H-imidazol-4-yl]quinoline]	25.1 to 158
0.0398 to 0.316	Cc1cccc(-c2[nH]cnc2-c2ccc3ncc(N4C[C@@H](C)N[C@@H](C)C4)cc3c2)n1 [Compound 148, 3-[(3R,5S)-3,5-dimethylpiperazin-1-yl]-6-[5-(6-methyl-2-pyridyl)-1H-imidazol-4-yl]quinoline]	25.1 to 158
< 0.0316	Cc1cccc(-c2[nH]cnc2-c2ccc3ncc(C4=CCC(N)CC4)cc3n2)n1 (stereo not shown) [Compound 149, 4-[6-[5-(6-methyl-2-pyridyl)-1H-imidazol-4-yl]-1,5-naphthyridin-3-yl]cyclohex-3-en-1-amine]	25.1 to 158
< 0.0316	Cc1cccc(-c2[nH]cnc2-c2ccc3ncc(C4=CCC(NCC(CCO)C(=O)O)CC4)cc3c2)n1 (stereo not shown) [Compound 150, 4-hydroxy-2-[[[4-[6-[5-(6-methyl-2-pyridyl)-1H-imidazol-4-yl]-3-quinolyl]cyclohex-3-en-1-yl]amino]methyl]butanoic acid]	200 to 1260
0.0398 to 0.316	Cc1cccc(-c2n[nH]cc2-c2ccc3ncc(N4CCC5NCCC5C4)cc3n2)n1 (stereo not shown) [Compound 151, 7-(1,2,3,3a,4,6,7,7a-octahydropyrrolo[3,2-c]pyridin-5-yl)-2-[3-(6-methyl-2-pyridyl)-1H-pyrazol-4-yl]-1,5-naphthyridine]	25.1 to 158
< 0.0316	CNCCn1ccc(-c2cnc3ccc(-c4nc[nH]c4-c4cccc(C)n4)nc3c2)n1 [Compound 152, N-methyl-2-[3-[6-[5-(6-methyl-2-pyridyl)-1H-imidazol-4-yl]-1,5-naphthyridin-3-yl]pyrazol-1-yl]ethanamine]	25.1 to 158
0.0398 to 0.316	Cc1cccc(-c2[nH]cnc2-c2ccc3ncc(C4=CCC(NC(=O)N5CCNCC5)CC4)cc3c2)n1 (stereo not shown) [Compound 153, N-[4-[6-[5-(6-methyl-2-pyridyl)-1H-imidazol-4-yl]-3-quinolyl]cyclohex-3-en-1-yl]piperazine-1-carboxamide]	200 to 1260
3.98 to 31.6	Cc1cccc(-c2[nH]cnc2-c2ccc3nccc(C4CCCN4)c3c2)n1 (stereo not shown) [Compound 154, 6-[5-(6-methyl-2-pyridyl)-1H-imidazol-4-yl]-4-pyrrolidin-2-yl-quinoline]	200 to 1260
0.398 to 3.16	Cc1cccc(-c2n[nH]cc2-c2ccc3ncc(CNCCCN4CCOCC4)cc3n2)n1 [Compound 155, N-[[6-[3-(6-methyl-2-pyridyl)-1H-pyrazol-4-yl]-1,5-naphthyridin-3-yl]methyl]-3-morpholino-propan-1-amine]	25.1 to 158
< 0.0316	Cc1cccc(-c2n[nH]cc2-c2ccc3ncc(N4CC(N5CCOCC5)C4)cc3n2)n1 [Compound 156, 4-[1-[6-[3-(6-methyl-2-pyridyl)-1H-pyrazol-4-yl]-1,5-naphthyridin-3-yl]azetidin-3-yl]morpholine]	< 20
0.0398 to 0.316	Cc1cccc(-c2n[nH]cc2-c2ccc3ncc(-c4c[nH]cn4)cc3n2)n1 [Compound 157, 7-(1H-imidazol-4-yl)-2-[3-(6-methyl-2-pyridyl)-1H-pyrazol-4-yl]-1,5-naphthyridine]	25.1 to 158
0.0398 to 0.316	Cc1cccc(-c2[nH]cnc2-c2ccc3ncc(-c4ccc(C(=O)O[C@@H]5CCN(C)C5)cc4)cc3c2)n1 [Compound 158, [(3R)-1-methylpyrrolidin-3-yl] 4-[6-[5-(6-methyl-2-pyridyl)-1H-imidazol-4-yl]-3-quinolyl]benzoate]	25.1 to 158
< 0.0316	Cc1cccc(-c2[nH]cnc2-c2ccc3ncc(N4CC5(CCCNC5)C4)cc3c2)n1 [Compound 159, 3-(2,8-diazaspiro[3.5]nonan-2-yl)-6-[5-(6-methyl-2-pyridyl)-1H-imidazol-4-yl]quinoline]	< 20
< 0.0316	Cc1cccc(-c2[nH]cnc2-c2ccc3ncc(N4CCC5(CCNCC5)C4)cc3c2)n1 [Compound 160, 2-[6-[5-(6-methyl-2-pyridyl)-1H-imidazol-4-yl]-3-quinolyl]-2,8-diazaspiro[4.5]decane]	25.1 to 158
0.0398 to 0.316	CNCCn1cc(-c2cnc3ccc(-c4c(-c5cccc(C)n5)[nH]c5ccccc45)cc3c2)cn1 [Compound 162, N-methyl-2-[4-[6-[2-(6-methyl-2-pyridyl)-1H-indol-3-yl]-3-quinolyl]pyrazol-1-yl]ethanamine]	200 to 1260
0.0398 to 0.316	Cc1cccc(-c2[nH]cnc2-c2ccc3ncc(-c4ccc5c(c4)CC(N)C5)cc3c2)n1 (stereo not shown) [Compound 163, 5-[6-[5-(6-methyl-2-pyridyl)-1H-imidazol-4-yl]-3-quinolyl]indan-2-amine]	< 20
0.0398 to 0.316	Cc1cccc(-c2[nH]cnc2-c2ccc3ncc(Nc4nc(CN5CCNCC5)cs4)cc3c2)n1 [Compound 164, N-[6-[5-(6-methyl-2-pyridyl)-1H-imidazol-4-yl]-3-quinolyl]-4-(piperazin-1-ylmethyl)thiazol-2-amine]	200 to 1260
0.0398 to 0.316	CNCCn1cc(-c2cnc3ccc(-c4c(-c5cccc(C)n5)[nH]c5cccnc45)nc3c2)cn1 [Compound 165, N-methyl-2-[4-[6-[2-(6-methyl-2-pyridyl)-1H-pyrrolo[3,2-b]pyridin-3-yl]-1,5-naphthyridin-3-yl]pyrazol-1-yl]ethanamine]	200 to 1260
0.0398 to 0.316	Cc1nc(-c2n[nH]cc2-c2ccc3ncc(NCCN4CCN(C(C)C)CC4)cc3c2)ccc1F [Compound 166, 6-[3-(5-fluoro-6-methyl-2-pyridyl)-1H-pyrazol-4-yl]-N-[2-(4-isopropylpiperazin-1-yl)ethyl]quinolin-3-amine]	25.1 to 158
0.0398 to 0.316	CCOC(=O)C1CC=C(c2cnc3ccc(-c4nc[nH]c4-c4cccc(C)n4)cc3c2)CC1 (stereo not shown) [Compound 167, ethyl 4-[6-[5-(6-methyl-2-pyridyl)-1H-imidazol-4-yl]-3-quinolyl]cyclohex-3-ene-1-carboxylate]	25.1 to 158
0.0398 to 0.316	Cc1cccc(-c2[nH]cnc2-c2ccc3ncc(N4CCN[C@@H](C(=O)O)C4)cc3c2)n1 [Compound 168, (2R)-4-[6-[5-(6-methyl-2-pyridyl)-1H-imidazol-4-yl]-3-quinolyl]piperazine-2-carboxylic acid]	1580 to 10000
0.0398 to 0.316	Cc1nc(-c2nc3ccccn3c2-c2ccc3ncc(-c4cn[nH]c4)cc3n2)ccc1F [Compound 169, 2-[2-(5-fluoro-6-methyl-2-pyridyl)imidazo[1,2-a]pyridin-3-yl]-7-(1H-pyrazol-4-yl)-1,5-naphthyridine]	< 20
0.0398 to 0.316	Cc1cccc(-c2nnn(Cc3ccccc3)c2-c2ccc3ncc(-c4cn[nH]c4)cc3n2)n1 [Compound 170, 2-[3-benzyl-5-(6-methyl-2-pyridyl)triazol-4-yl]-7-(1H-pyrazol-4-yl)-1,5-naphthyridine]	25.1 to 158
< 0.0316	Cc1cccc(-c2[nH]cnc2-c2ccc3ncc(C4=CC[C@@H](N)CC4)cc3c2)n1 [Compound 171, (1S)-4-[6-[5-(6-methyl-2-pyridyl)-1H-imidazol-4-yl]-3-quinolyl]cyclohex-3-en-1-amine]	< 20
